# Results taken from patent US20250171404A1, “PCNA INHIBITORS AND USES THEREOF” (CITY OF HOPE, priority 2022, published 2025).
# Assays:
# [1] = test system: PCNA and MCM7 on chromatin, MDA-MB-468 cells; assay: Cell fractionation, chromatin-bound PCNA and MCM7; assay type: cell-based, human; settings: 5, 50, or 500 nM, 24 h
# Method: FIGS. 7A-7E. Transcription dependent effect on DNA replication and damage. FIG. 7A: Left: Schematic of the cell fractionation procedure. Right: MDA-MB-468 cells were treated by increasing concentrations of AOH1996 (5, 50, or 500 nM) for 24 h. Cells treated with DMSO were used as control. Whole cell extract (WCE) and protein fractions associated with actively transcribed chromatin (CB:RNA+) or with low or non-transcribed chromatin (CB:RNA−) were analyzed by Western blot using antibodies against PCNA, CAF-1, and MCM7. FIG. 7B: Synchronized cancer cells were sequentially incubated in the presence of CldU (light grey) and IdU (dark grey) before and after AOH1996 treatment, respectively. […] Middle and Right: Lengths of CldU (light grey) and IdU (dark grey) incorporated DNA segments measured for more than 30 independent DNA strands from the indicated cancer cell type were averaged and graphed ±S.D. FIG. 7C: Whole cell lysates were extracted from SK-N-AS cells homozygous of the wildtype RPB1 allele or the APIM-mutant allele. Histone H2A.X and γH2A.X was analyzed by Western blot after treatment with or without AOH1996 overnight. FIG. 7D: Histone H2A.X and γH2A.X in whole cell lysates from SK-N-AS cells were analyzed by Western blot after treatment with 500 nM AOH1996 and/or 50 μM DRB overnight. […]
# 7SM0032 = assay: Cell cycle analysis (PI, flow cytometry), nonmalignant cells; assay type: cell-based, human; settings: 500 nM; nonmalignant 7SM0032 cells
# Method: FIGS. 3A-3D. Therapeutic properties of AOH1996. FIG. 3A: Normal cells (7SM0032) or cancer cells (SH-SY5Y and SK-N-BE(2)c) cells were fixed, stained with PI, and analyzed by flow cytometry following treatment with 500 nM AOH1996 for the indicated time. FIG. 3B: SK-N-DZ neuroblastoma cells and nonmalignant 7SM0032 stem cells were incubated with 500 nM AOH1996 for 24 h. Then, after being fixed on slides, cell apoptosis were analyzed by a TUNEL assay. Left: TMR fluorophore attached to the free ends of DNA indicates cells undergoing apoptosis. DAPI stained nuclei also shown. Right: Average abundance ±S.D. of apoptotic 7SM0032 (black histogram) and SK-N-DZ (grey histogram) cells relative to the total number of cells are shown in 5 randomly selected fields. FIG. 3C: Human SK-N-DZ neuroblastoma cells were treated with or without the indicated concentrations of cisplatin in the absence or presence of 500 nM of AOH1996 for 18 hours. […] The relative number of colonies determined in triplicates for each treatment condition were averaged and graphed ±SDs (*, P<0.01). […] Cell growth was measured as the percentage of cell confluence by imaging every 6 h for a total of 48 h.
# Cell Cycle Analysis. […] PI fluorescence intensity of the cells was measured by flow cytometry and the data was analyzed using the FlowJo program.
compound,measurement,setting,value
"COc1cccc(Oc2ccccc2NC(=O)CNC(=O)c2cccc3ccccc23)c1 [AOH1996, N-(2-((2-(3-methoxyphenoxy)phenyl)amino)-2-oxoethyl)-1-naphthamide]",association of PCNA and MCM7 with chromatin,[1],caused dissociation of PCNA and MCM7 from the actively transcribed open chromatin regions
same,change in cell-cycle profile,7SM0032,does not significantly change the cell-cycle profiles
